# Data from patent publication US6569878B1, “Substituted 4-amino-thiazol-2-yl compounds as cyclin-dependent kinase inhibitors” (Agouron Pharmaceuticals Inc., priority 1997, dated 2003).
# Biological target: T1, complex of human CDK4 and cyclin D3 (Homo sapiens, UniProt P11802)
# T1 construct: made in house; host or cells: insect cells, co-infected with baculovirus
# Assay: Inhibition of CDK4/cyclin D retinoblastoma kinase activity (D-type cyclin is D3)
# Format: biochemical
# Conditions: superscript a: D-type cyclin is D3; apparent Ki; read-out: Ki CDK 4/D
# Experimental: Cyclin-dependent kinase activity was measured by quantifying the enzyme-catalyzed, time-dependent incorporation of radioactive phosphate from [^32P]ATP or [^33P]ATP into a protein substrate. […] Reactions were initiated with enzyme, incubated at 30° C., and terminated after 20 minutes by the addition of ethylenediaminetetraacetic acid (EDTA) to 250 mM. […] Radioactivity was quantified by exposing the dried membranes to a phosphorimager.
# Apparent Ki values were measured by assaying enzyme activity in the presence of different inhibitor compound concentrations and subtracting the background radioactivity measured in the absence of enzyme. The kinetic parameters (kcat, Km for ATP) were measured for each enzyme under the usual assay conditions by determining the dependence of initial rates on ATP concentration. Inhibition data were fit to an equation for competitive inhibition using Kaleidagraph (Synergy Software), or were fit to an equation for competitive tight-binding inhibition using the software KineTic (BioKin, Ltd.).
# Phosphorylated Rb substrate was captured by microfiltration on a nitrocellulose membrane and quantified using a phosphorimager as described above. For measurement of tight-binding inhibitors, the enzyme complex concentration was lowered to 5 nM, and the assay duration was extended to 60 minutes, during which the time-dependence of product formation was linear.
# T1 sequence (P11802 whole entry): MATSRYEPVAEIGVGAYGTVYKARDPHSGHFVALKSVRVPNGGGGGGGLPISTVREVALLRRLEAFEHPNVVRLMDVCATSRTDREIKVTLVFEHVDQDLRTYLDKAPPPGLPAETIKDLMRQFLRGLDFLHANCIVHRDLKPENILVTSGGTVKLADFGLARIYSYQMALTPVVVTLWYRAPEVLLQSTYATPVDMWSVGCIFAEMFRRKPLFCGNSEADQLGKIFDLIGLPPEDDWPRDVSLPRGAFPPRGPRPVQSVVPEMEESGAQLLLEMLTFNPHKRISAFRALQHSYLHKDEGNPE
# T1 sequence (P30281 whole entry partner): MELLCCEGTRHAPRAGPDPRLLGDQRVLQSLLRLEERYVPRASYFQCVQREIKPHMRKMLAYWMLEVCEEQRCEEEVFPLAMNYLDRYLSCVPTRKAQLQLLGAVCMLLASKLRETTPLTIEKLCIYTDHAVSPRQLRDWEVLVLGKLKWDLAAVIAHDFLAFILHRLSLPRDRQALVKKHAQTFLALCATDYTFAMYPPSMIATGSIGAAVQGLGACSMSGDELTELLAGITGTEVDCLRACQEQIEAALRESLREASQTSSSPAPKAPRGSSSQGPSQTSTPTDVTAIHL
row,Structure (SMILES),Ki [µM]
1,"Cc1ccc(Nc2nc(N)c(C(=O)c3ccc(C)cc3C)s2)cc1 [A(14), [4-Amino-2-(p-tolylamino)-thiazol-5-yl]-(2,4-dimethylphenyl)-methanone]",0.18
2,COc1cc(C(=O)c2sc(Nc3ccccc3)nc2N)cc(OC)c1OC [I(16)],1.88
3,"COc1ccccc1C(=O)c1sc(Nc2cccnc2)nc1N [C(29), [4-Amino-2-(pyridin-3-ylamino)-thiazol-5-yl]-(2-methoxy-phenyl)-methanone]",0.357
4,"Nc1nc(Nc2cccnc2)sc1C(=O)c1ccc(Cl)cc1Cl [C(28), [4-Amino-2-(pyridin-3-ylamino)-thiazol-5-yl]-(2,4-dichloro-phenyl)-methanone]",0.24
5,"Nc1nc(NCCc2ccc(Cl)cc2)sc1C(=O)c1ccccc1[N+](=O)[O-] [C(16), {4-Amino-2-[2-(4-chloro-phenyl)-ethylamino]-thiazol-5-yl}-(2-nitro-phenyl)-methanone]",0.17
6,"COc1ccc(C(=O)c2sc(Nc3ccc(OCc4ccccc4)cc3)nc2N)cc1 [C(2), [4-Amino-2-(4-benzyloxy-phenylamino)-thiazol-5-yl]-(4-methoxy-phenyl)-methanone]",> 5
7,"CN(C)c1ccc(Nc2nc(N)c(C(=O)c3ccccc3N)s2)cc1 [D(3), [4-Amino-2-(4-dimethylamino-phenylamino)-thiazol-5-yl]-(2-amino-phenyl)-methanone]",0.38
8,"COc1ccccc1C(=O)c1sc(Nc2ccc3nc[nH]c3c2)nc1N [C(32), [4-Amino-2-(1H-benzoimidazol-6-ylamino)-thiazol-5-yl]-(2-methoxy-phenyl)-methanone]",0.094
9,"Nc1nc(Nc2ccc(Sc3ncc(C(F)(F)F)cc3Cl)cc2)sc1C(=O)c1ccccc1[N+](=O)[O-] [C(25), {4-Amino-2-[4-(2-chloro-5-trifluoromethyl-pyridin-2-yl sulfanyl)-phenylamino]-thiazol-5-yl}-(2-nitro-phenyl)-methanone]",1.3
10,"COc1ccc(Nc2nc(N)c(C(=O)c3[nH]cnc3C)s2)cc1 [C(40), [4-Amino-2-(4-methoxy-phenylamino)-thiazol-5-yl]-(4-methyl-1H-imidazol-5-yl)-methanone]",3.84
11,COC(=O)c1cccc(Nc2nc(N)c(C(=O)c3cccc(OC)c3)s2)c1 [I(13)],2.4
12,"Cc1c(C(=O)c2sc(Nc3ccc4nc[nH]c4c3)nc2N)sc2ccc(Cl)cc12 [C(10), [4-Amino-2-(1H-benzoimidazol-6-yl-amino)-thiazol-5-yl]-(5-chloro-3-methyl-benzo[b]thiophen-2-yl)-methanone]",0.68
13,"Cc1c(C(=O)c2sc(Nc3ccc(N(C)C)cc3)nc2N)sc2ccccc12 [C(7), [4-Amino-2-((4-dimethylaminophenyl)amino)-thiazol-5-yl]-(3-methyl-benzo[b]thiophen-2-yl)-methanone]",0.51
14,"Cn1cccc1C(=O)c1sc(Nc2ccc3nc[nH]c3c2)nc1N [C(43), [4-Amino-2-(1H-benzimidazol-5-ylamino)-thiazol-5-yl]-(1-methyl-1H-pyrrol-2-yl)-methanone]",0.315
15,"COC(=O)c1cccc(Nc2nc(N)c(C(=O)c3ccccc3OC)s2)c1 [C(26), Methyl 3-[4-Amino-5-(2-methoxy-benzoyl)-thiazol-2-ylamino]-benzoate]",0.33
16,Cc1c(C(=O)c2sc(Nc3ccc(N(C)C)cc3)nc2N)sc2ccc(Cl)cc12 [C(9)],0.74
17,COC(=O)c1cccc(Nc2nc(N)c(C(=O)c3ccc4ccccc4c3)s2)c1 [I(15)],0.44
18,"Nc1nc(Nc2cccnc2)sc1C(=O)c1ccc2ccccc2c1 [C(30), [4-Amino-2-(pyridin-3-ylamino)-thiazol-5-yl]-naphthalen-2-yl-methanone]",1.4
19,"COc1ccccc1C(=O)c1sc(NCCc2ccc(Cl)cc2)nc1N [C(27), {4-Amino-2-[2-(4-chloro-phenyl)-ethylamino]-thiazol-5-yl}-(2-methoxy-phenyl)-methanone]",1.02

# Continued, values first:
row,Ki [µM],Structure (SMILES)
1,4.3,Nc1nc(NC2CCCCC2)sc1C(=O)c1ccc(F)cc1 [I(8)]
2,1.5,Cc1ccc(Nc2nc(N)c(C(=O)c3ccccc3)s2)cc1 [I(23)]
3,> 5,"Nc1ccc(C(=O)c2sc(Nc3ccccc3)nc2N)cc1 [D(2), (4-Amino-phenyl)-(4-amino-2-phenylamino-thiazol-5-yl)-methanone]"
4,2.5,Nc1nc(NC2CCCCC2)sc1C(=O)c1ccc([N+](=O)[O-])cc1 [I(9)]
5,12.9,"CCN(CC)c1ccc(Nc2nc(N)c(C(=O)c3ccc([N+](=O)[O-])cc3)s2)cc1 [C(18), [4-Amino-2-(4-diethylamino-phenylamino)-thiazol-5-yl]-(4-nitro-phenyl)-methanone]"
6,0.33,"COCCCNc1nc(N)c(C(=O)c2ccccc2[N+](=O)[O-])s1 [C(23), [4-Amino-2-(3-methoxy-propylamino)-thiazol-5-yl]-(2-nitro-phenyl)-methanone]"
7,1.17,"Nc1nc(Nc2ccc(S(N)(=O)=O)cc2)sc1C(=O)c1ccc(C(=O)O)cc1 [E(2), 4-[4-Amino-2-(4-sulfamoyl-phenylamino)-thiazole-5-carbonyl]-benzoic Acid]"
8,0.051,"Nc1nc(Nc2ccc([N+](=O)[O-])cc2)sc1C(=O)c1ccccc1[N+](=O)[O-] [C(13), [4-Amino-2-(4-nitro-phenylamino)-thiazol-5-yl]-(2-nitro-phenyl)-methanone]"
9,0.52,Nc1nc(Nc2ccccc2)sc1C(=O)c1ccc(F)cc1 [I(11)]
10,0.057,"Nc1nc(NC2CCCCC2)sc1C(=O)c1ccccc1[N+](=O)[O-] [C(14), (4-Amino-2-cyclohexylamino-thiazol-5-yl)-(2-nitro-phenyl)-methanone]"
11,~1.5,CN(C)c1ccc(Nc2nc(N)c(C(=O)c3ccc(F)cc3)s2)cc1 [I(7)]
12,0.8,"Nc1ccc(Nc2nc(N)c(C(=O)c3ccccc3)s2)cc1 [D(4), [4-Amino-2-(4-amino-phenylamino)-thiazol-5-yl]-phenyl-methanone]"
13,0.31,"Nc1nc(Nc2ccc(I)cc2)sc1C(=O)c1ccccc1[N+](=O)[O-] [A(7), [4-Amino-2-(4-iodo-phenylamino)-thiazol-5-yl]-(2-nitro-phenyl)-methanone]"
14,0.057,"CC(C)c1ccc(Nc2nc(N)c(C(=O)c3ccccc3[N+](=O)[O-])s2)cc1 [C(15), [4-Amino-2-(4-isopropyl-phenylamino)-thiazol-5-yl]-(2-nitro-phenyl)-methanone]"
15,~0.3,"Nc1nc(Nc2ccccc2)sc1C(=O)c1ccc([N+](=O)[O-])cc1 [A(2), (4-Amino-2-phenylamino-thiazol-5-yl)-(4-nitrophenyl)-methanone]"

# Same assay, conditions: superscript a: D-type cyclin is D3; μM; read-out: Ki CDK 4/D
row,Structure (SMILES),Ki [µM]
1,"COc1ccc(CNc2nc(N)c(C(=O)c3cc(C)sc3C)s2)cc1 [C(68), [4-Amino-2-(4-methoxy-benzylamino)-thiazol-5-yl]-(2,5-dimethylthiophen-3-yl)-methanone]",> 30
2,Nc1nc(Nc2ccc(S(N)(=O)=O)cc2)sc1C(=O)c1ccc(OC(=O)c2ccccc2)cc1 [C(39)],> 100

# Results, then the compound that gave them:
row,Ki [µM],Structure (SMILES)
1,> 10,"CCC(Nc1nc(N)c(C(=O)c2ccc([N+](=O)[O-])cc2)s1)C(=O)OC (stereo in doubt) [C(6), Methyl 2(S)-[4-Amino-5-(4-nitro-benzoyl)-thiazol-2-ylamino]-butyrate]"
2,> 25,"Nc1nc(Nc2ccc([N+](=O)[O-])cc2)sc1C(=O)c1ccccc1 [A(8), [4-Amino-2-(4-nitro-phenylamino)-thiazol-5-yl]-phenyl-methanone]"
